Measured values from US7153863B2, “Therapeutic compounds based on pyrazolopyridline derivatives” (SmithKline Beecham Corporation, priority 2002, dated 2006).

The compounds below were run on HSV-1 (assay: HSV-1 infection of Vero 76 cells, HSV DNA hybridization capture assay). Conditions: Human alphaherpesvirus 1; HSV-1 (MOI=0.001) in Vero 76 cells, 40–48 hours at 37° C., viral DNA by hybridization/chemiluminescence.
Assay type: cell-based, herpes simplex virus 1
Procedure: Vero 76 cells were maintained in MEM with Earle's salts, L-glutamine, 8% FBS (Hyclone, A-1111-L) and 100 units/mL Penicillin-100 μg/mL Streptomycin. For assay conditions, FBS was reduced to 2%. Cells are seeded into 96-well tissue culture plates at a density of 5×10^4 cells/well after being incubated for 45 min at 37° C. in the presence of HSV-1 or HSV-2 (MOI=0.001). Test compounds are added to the wells and the plates are incubated at 37° C. for 40–48 hours. Cell lysates are prepared as follows: media was removed and replaced with 150 μL/well 0.2 N NaOH with 1% Igepal CA 630 or NP-40. Plates were incubated up to 14 days at room temperature in a humidified chamber to prevent evaporation.
For the detection probe, a gel-purified, digoxigenin-labeled, […] PCR fragment of the HSV UL-15 sequence was utilized. PCR conditions included 0.5 μM primers, 180 μM dTP, 20 μM dUTP-digoxigenin (Boehringer Mannheim 1558706), 200 μM each of dATP, dCTP, and dGTP, 1×PCR Buffer II (Perkin Elmer), 2.5 mM MgCl2, 0.025 units/μL of AmpliTaq Gold polymerase (Perkin Elmer), and 5 ng of gel-purified HSV DNA per 100 μL Extension conditions were 10 min at 95° C., followed by 30 cycles of 95° C. for 1 min, 55° C. for 30 sec, and 72° C. for 2 min. The amplification was completed with a 10-min incubation at 72° C. Primers were selected to amplify a 728 bp probe spanning a section of the HSV1 UL15 open reading frame (nucleotides 249–977). Single-stranded transcripts were purified with Promega M13 Wizard kits. The final product was mixed 1:1 with a mixture of 6 M GuSCN, 100 mM EDTA and 200 μg/mL herring sperm DNA and stored at 4° C.
The capture DNA plasmid (HSV UL13 region in pUC) was linearized by cutting with Xba I, denatured for 15 min at 95° C. and diluted immediately into Reacti-Bind DNA Coating Solution (Pierce, 17250, diluted 1:1 with TE buffer, pH 8) at 1 ng/μL 75 μL/well were added to Corning (#3922 or 9690) white 96-well plates and incubated at room temperature for at least 4 hrs before washing twice with 300 μL/well 0.2×SSC/0.05% Tween-20 (SSC/T buffer). The plates were then incubated overnight at room temperature with 150 μL/well 0.2 N NaOH, 1% IGEPAL and 10 μg/mL herring sperm DNA.
Twenty-seven (27) μL of cell lysate was combined with 45 μL of hybridization solution (final concentration: 3M GuSCN, 50 mM EDTA, 100 μg/ml salmon sperm DNA, 5× Denhardt's solution, 0.25×APE, and 5 ng of the digoxigenin-labeled detection probe). APE is 1.5 M NH4-acetate, 0.15 M ammonium phosphate monobasic, and 5 mM EDTA adjusted to pH 6.0. Mineral oil (50 μL) was added to prevent evaporation. The hybridization plates were incubated at 95° C. for 10 minutes to denature the DNA, then incubated at 42° C. overnight. The wells were washed 6× with 300 μL/well SSC/T buffer then incubated with 75 μL/well anti-digoxigenin-HRP-conjugated antibody (Boehringer Mannheim 1207733, 1:5000 in TE) for 30 min at room temperature. The wells were washed 6× with 300 μL/well with PBS/0.05% Tween-20 before 75 μL/well SuperSignal LBA substrate (Pierce) was added. The plates were incubated at room temperature for 30 minutes and chemiluminescence was measured in a Wallac Victor reader.
The following results were obtained for HSV-1.

Structure (SMILES) | IC50
CSc1nccc(-c2c(C3CC3)nn3ccccc23)n1 [Example 34, 2-Cyclopropyl-3-[2-(methylthio)pyrimidin-4-yl]pyrazolo[1,5-a]pyridine] | > 40 µM
c1ccn2nc(C3CC3)c(-c3ccnc(NC4CCCC4)n3)c2c1 [Example 35, N-Cyclopentyl-4-(2-cyclopropylpyrazolo[1,5-a]pyridin-3-yl)pyrimidin-2-amine] | 3.1 µM
c1cc(NC2CCCC2)n2nc(C3CC3)c(-c3ccnc(NC4CCCC4)n3)c2c1 [Example 36, N-Cyclopentyl-3-[2-(cyclopentylamino)pyrimidin-4-yl]-2-cyclopropylpyrazolo[1,5-a]pyridin-7-amine] | 0.9 µM
